Article PMC8059291 (Antiviral Research, 2021)

Biological target: SARS-CoV-2 RdRp (Severe acute respiratory syndrome coronavirus 2, UniProt P0DTD1)
Experiment: CoV-Gluc RNA levels by real-time RT-PCR after NA treatment
Format: cell-based
Conditions: HEK293T, 1 μM, 24 h

Compound: CCC(CC)COC(=O)[C@H](C)N[P@](=O)(OC[C@H]1O[C@@](C#N)(c2ccc3c(N)ncnn23)[C@H](O)[C@@H]1O)Oc1ccccc1 [Remdesivir]
- reduction of minus-strand Gluc RNA: 60%
